One data set addresses T1, full-length LSD1 (Homo sapiens, UniProt O60341).
T1 construct: the full-length LSD1 and 0.5 μM FAD in reaction buffer
Kind of data set: FL-LSD1 LC-MS assay. Format: biochemical. Conditions: 0.4 nM FL-LSD1, 0.25 μM FAD, 0.5 μM H3K4me1 peptide, 60 min; read-out: LCMS IC50 (LSD1 IC50 as measured by LCMS). On the procedure: Representative compounds of the present disclosure were serially and separately diluted 3-fold in DMSO to obtain a total of twelve concentrations. […] A 5 μL solution of 1 μM of the peptide substrate H3K4me1 (histone H3[1-21]-biotin) in reaction buffer was added to each initiate reaction. […] The conversion ratio of H3K4me1 substrate to the H3K4me0 product was calculated by dividing the peak area of the H3K4me0 peptide by the total peak area of all those two peptides on the assumption that the ionization efficiency of those peptides is the same. The data were then fit to a dose response equation using the program Helios to get the IC50 values of the test compound.

The next data set relates to human T cells. Kind of data set: T cell phenotype after anti-CD3/CD28 expansion with LSD1 shRNA (flow cytometry). It is filed as cell-based. Conditions: 10 days anti-CD3/CD28 expansion, transfected with DNA encoding shRNA. On the procedure: Flow cytometry was performed on a four laser Fortessa (Becton-Dickinson).
Inhibition of LSD1 by shRNA promotes the expansion of TSCM cells T cells were isolated by negative selection and expanded with anti-CD3/CD28 beads at a 3:1 ratio for 10 days. On day 1, T cells were transduced with lentiviral expression vectors containing LSD1 shRNA targeting sequences that co-expressed the fluorescent protein mCherry. Following expansion, T cell phenotypes of mCherry+ T cells were assessed by flow cytometry.
On the technique in general: A flow cytometer gives signals particle by particle.

Numbering of substitutions follows the chain as printed.

As to `CS(=O)(=O)c1ccc(-c2cc(-c3cc(C#N)c(N4CCNCC4)[nH]3)ccc2Cl)cc1` [5-(6-chloro-4′-(methylsulfonyl)biphenyl-3-yl)-2-(piperazin-1-yl)-1H-pyrrole-3-carbonitrile], the IC50 on full-length LSD1 came out at 12 nM. Still for that read-out and setting: next, `CN(C)C1CCN(S(=O)(=O)c2ccc(-n3ncc4c(-c5ccc(C6CCNCC6)cc5)cccc43)cc2)CC1` [N,N-dimethyl-1-((4-(4-(4-(piperidin-4-yl)phenyl)-1H-indazol-1-yl)phenyl)sulfonyl)piperidin-4-amine]: 9 nM; `COc1ccc(-n2cc(-c3cccc(N)c3C)c3cc(C#N)c(C)cc32)cc1` [NVS Compound 2, 3-(3-amino-2-methylphenyl)-1-(4-methoxyphenyl)-6-methyl-1H-indole-5-carbonitrile]: 5 nM. With “LSD1 2: shRNA to LSD1, encoded by SEQ ID NO: 127 (DNA CAGAAGGCCTAGACATTAAACCTCGAGGTTTAATGTCTAGGCCTTCTGTTTTTTGA; the letters are possibly those of the target site)”, in the data set on human T cells, the “percentage of CD4+ T cells having the TSCM (CD45RA+CD62L+CCR7+CD27+CD95+) phenotype” value was “enriched in TSCM” and the “percentage of CD8+ T cells having the TSCM (CD45RA+CD62L+CCR7+CD27+CD95+) phenotype” value is recorded as approximately 50%.

B1: LSD1 1A: shRNA to LSD1, encoded by SEQ ID NO: 125 (nucleic acid)
DNA: CGGTTGCTAGAAGCTACATCTGTTAATATTCATAGCAGATGTAGCTTCTAGCAACCGTTTTTTGA
Take B1: in the data set on human T cells, the “percentage of CD4+ T cells having the TSCM (CD45RA+CD62L+CCR7+CD27+CD95+) phenotype” value is “enriched in TSCM” and the “percentage of CD8+ T cells having the TSCM (CD45RA+CD62L+CCR7+CD27+CD95+) phenotype” value is listed as approximately 50%.

B2: LSD1 1B: shRNA to LSD1, encoded by SEQ ID NO: 126 (nucleic acid)
DNA: B1 DNA with C14T, C20T
modifications: the letters are possibly those of the target site
Regarding B2, in the data set on human T cells, the “percentage of CD4+ T cells having the TSCM (CD45RA+CD62L+CCR7+CD27+CD95+) phenotype” value was “up to 20%” and the “percentage of CD8+ T cells having the TSCM (CD45RA+CD62L+CCR7+CD27+CD95+) phenotype” value is recorded as approximately 50%.

For orientation: IC50 means the concentration needed to halve the response being measured.

Source of the values: US20190298715A1, “IMMUNE EFFECTOR CELL THERAPIES WITH ENHANCED EFFICACY” (Novartis AG, priority 2016, published 2019).
